Laboratory results from patent US7112584B2, “Nonsteroidal antiinflammatory agents” (Schering AG, priority 2002, dated 2006).
Where two headings read alike, the source gives them in different places.

Key:
[1] = test system: secretion of cytokine IL-8 in human monocyte cell line THP-1; assay: inhibition of LPS-triggered IL-8 secretion in THP-1 cells (ELISA); assay type: cell-based; set-up: Inhibition of IL-8 Secretion Efficacy: concentration or dose not given beside the values; details: THP-1, LPS-triggered
Description: The concentration of the cytokines was determined in the supernatant with use of commercially available ELISA kits.
The potency of the inflammation inhibition is determined by the inhibition of the secretion of cytokine IL-8 in a cellular test. […] The concentration of the cytokine was determined in the supernatant by commercially available ELISA kits. In this connection, the compounds of formula I show a high to very high potency and action (>50%) in the inhibition (see Table 4). The potency of the racemates is considerably lower than that of the pure enantiomers.

[2] = molecular target: T1, GR (IL-6 promoter) (Homo sapiens, UniProt P04150); assay: reporter gene test in HeLa cells, transrepression, IL-6 promoter-luciferase; details: for Emax: HeLa, read-out: Transrepression (TR)(IL-6-Promoter) Efficacy
T1 sequence (P04150 1-777): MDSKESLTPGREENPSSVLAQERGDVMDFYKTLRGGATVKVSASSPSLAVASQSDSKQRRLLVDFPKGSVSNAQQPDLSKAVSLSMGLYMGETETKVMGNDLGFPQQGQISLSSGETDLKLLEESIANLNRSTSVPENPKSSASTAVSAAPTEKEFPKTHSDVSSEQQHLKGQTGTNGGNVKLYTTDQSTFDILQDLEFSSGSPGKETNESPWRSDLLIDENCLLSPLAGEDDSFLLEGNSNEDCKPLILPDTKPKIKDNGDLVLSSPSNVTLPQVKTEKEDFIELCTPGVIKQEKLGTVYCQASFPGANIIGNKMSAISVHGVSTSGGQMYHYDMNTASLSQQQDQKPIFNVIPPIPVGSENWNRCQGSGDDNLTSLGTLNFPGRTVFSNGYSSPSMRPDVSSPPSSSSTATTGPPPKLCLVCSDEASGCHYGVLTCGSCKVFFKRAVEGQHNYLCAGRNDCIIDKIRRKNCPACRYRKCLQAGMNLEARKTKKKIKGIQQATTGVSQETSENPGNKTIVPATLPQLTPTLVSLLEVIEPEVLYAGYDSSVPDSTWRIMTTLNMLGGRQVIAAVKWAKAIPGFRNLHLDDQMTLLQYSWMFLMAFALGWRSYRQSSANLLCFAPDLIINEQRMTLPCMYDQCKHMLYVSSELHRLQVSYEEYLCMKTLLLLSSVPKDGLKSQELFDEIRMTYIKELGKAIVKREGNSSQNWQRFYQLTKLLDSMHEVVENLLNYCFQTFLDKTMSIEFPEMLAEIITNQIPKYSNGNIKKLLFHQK
Description: (§1) The MMTV promoter (transactivation) and the IL-6 promoter (transrepression) in each case were upstream to the gene that codes for the luciferase. By means of the photometric determination of the enzyme activity of the luciferase, it was possible to measure the activation of the transcription (MMTV-promoter-construct) or the inhibition of the transcription (IL-6-promoter-construct) by the GR.
(§2) This dissociation of the mechanisms of action was determined with the aid of the reporter gene test in stable transfixed human HeLa cells. To determine the transactivation induced by the GR, the MMTV promoter, which is set before a luciferase gene, is used. Via the photometric determination of the luciferase activity, it was possible to determine the transactivation activities of the GR after binding the test compounds. The inhibition of the transcription of the luciferase gene, induced by tetradecanoyl-phorbol acetate (TPA) under the control of the IL-6 promoter or the collagenase promoter (transpression) by the GR after binding the test substances, was also determined by the measurement of luciferase activity in HeLa cells.

[3] = molecular target: T2, human GR (Homo sapiens, UniProt P04150); assay: glucocorticoid receptor (GR) binding test, cytosol of Sf9 cells, [3H]-dexamethasone; details: human GR from Sf9 cytosol
T2 construct: made in house; host or cells: Sf9 cells infected with recombinant baculovirus (cytosol preparation)
T2 sequence (P04150 1-777): T1 sequence (P04150 1-777)
Description: The binding of substances to the glucocorticoid receptor (GR) is examined with the aid of a recombinantly produced receptor. Cytosol preparations of Sf9 cells, which had been infected with recombinant baculoviruses, which code for the GR, are used for the binding studies.

[4] = molecular target: T3, GR (MMTV promoter) (Homo sapiens, UniProt P04150); assay: reporter gene test in HeLa cells, transactivation, MMTV promoter-luciferase; details: for TA:TR EC50:IC50: MMTV promoter EC50 : IL-6 promoter IC50
T3 sequence (P04150 1-777): T1 sequence (P04150 1-777)
Description: as §1, §2

[5] = molecular target: T4, GR (collagenase promoter) (Homo sapiens, UniProt P04150); assay: reporter gene test in HeLa cells, transrepression, collagenase promoter-luciferase; assay type: cell-based; details: TPA-induced; for IC50: read-out: Transrepression (TR)(Collagenase Promoter) IC50
T4 construct: endogenous in cells; host or cells: HeLa cells stably transfected with promoter-luciferase reporters (MMTV, IL-6 or collagenase promoter)
T4 sequence (P04150 1-777): T1 sequence (P04150 1-777)

[6] = test system: tyrosinamino transferase (TAT); assay: induction of tyrosinamino transferase (TAT) in liver homogenates; assay type: in vivo; details: mice, 8 hours after administration, vs untreated control
Description: One of the most frequent undesirable effects of a glucocorticoid therapy is the so-called “steroid diabetes” [cf. Hatz, H. J., Glucocorticoide: Immunologische Grundlagen, Pharmakologie und Therapierichtlinien [Glucocorticoids: Immunological Bases, Pharmacology and Therapy Guidelines], Wissenschaftliche Verlagsgesellschaft mbH, Stuttgart, 1998]. The reason for this is the stimulation of the gluconeogenesis in the liver by induction of the enzymes that are responsible for this effect and by free amino acids, which develop from the degradation of proteins (catabolic action of glucocorticoids). A key enzyme of the catabolic metabolism in the liver is the tyrosinamino transferase (TAT). The activity of this enzyme can be determined photometrically from liver homogenates and represents a good yardstick of the undesirable metabolic actions of the glucocorticoids. To measure the TAT induction, the animals are sacrificed 8 hours after the test substances are administered, the livers are removed, and the TAT activity in the homogenate is measured.
As parameters for the side effects of the catabolic metabolism induced by steroids, the activity of the enzyme tyrosinamino transferase (TAT) was determined by photometry from liver homogenates. The activity represents a good yardstick for the undesirable catabolic actions of the glucocorticoids. To measure the TAT induction, the animals (mice and rats) are killed 8 hours after the test substance is administered, the liver is removed, and the TAT activity is measured in the homogenates.

[7] = test system: croton oil-induced inflammation; assay: croton oil-induced ear inflammation, edema formation in mice; assay type: in vivo; details: systemic, two hours before croton oil, ear weight
Description: The antiinflammatory actions of the compounds of general formula I were tested in the animal experiment by tests in the croton oil-induced inflammation in rats and mice (J. Exp. Med. (1995), 182, 99–108). In this connection, croton oil in ethanolic solution was administered topically to the animals' ears. The test substances were also administered topically or systemically simultaneously with or two hours before the croton oil. After 16–24 hours, the ear weight was measured as a yardstick of the inflammatory edema, the peroxidase activity was measured as a yardstick of the invasions of granuloctyes, and the elastase activity was measured as a yardstick of the invasion of neutrophilic granuloctyes.
The antiinflammatory action of the compounds of general formula I were tested in an animal experiment in croton oil-induced inflammation in mice and in rats (J. Exp. Med. (1995), 182, 99–108). In this connection, croton oil in ethanolic solution was administered topically to the animals' ears. The test substances were systemically administered for two hours before the croton oil. After 16–24 hours, the ear weight was measured as a yardstick for the inflammatory edema.

[8] = HeLa cells, TPA-induced, luciferase
[9] = read-out: Transrepression (TR)(IL-6-Promoter) IC50, HeLa cells, TPA-induced, luciferase
[10] = read-out: Transactivating (TA)(MMTV-Promoter) EC50, HeLa cells, luciferase

Q: What does the source list for `Cc1noc(=O)c2ccc(NC(=O)C(O)(CC3(c4cccc5c4OCC5)CCC3)C(F)(F)F)cc12` (single isomer, unassigned) [Example 15]?
A: IC50 [1]: 7.5 nM; Inhibition of IL-8 Secretion Efficacy [1]: 74%; Transrepression (TR)(IL-6-Promoter) Efficacy [2, 8]: 74%; IC50 [2, 9]: 1.5 nM

Q: Which results are given for `COc1c(F)cccc1C1(CC(O)(C(=O)Nc2ccc3c(=O)onc(C)c3c2)C(F)(F)F)CCC1` (racemic) [Example 31]?
A: IC50 [3]: 14 nM; IC50 [2]: 5.4 nM; Emax [2]: 67%

Q: Which results are given for `Cc1noc(=O)c2ccc(NC(=O)C(O)(CC3(c4cccc(F)c4O)CCC3)C(F)(F)F)cc12` (single isomer, unassigned) [Example 33]?
A: IC50 [2]: 2.2 nM; Emax [2]: 80%; EC50 [4]: 49 nM; Transactivating (TA)(MMTV-Promoter) Efficacy ([4]; HeLa cells, luciferase): 76%; TA:TR EC50:IC50 [4]: 22.3

Q: What does the source list for `Cc1noc(=O)c2ccc(NC(=O)C(O)(CC3(c4cccc5c4OCO5)CC3)C(F)(F)F)cc12` (single isomer, unassigned; (+)) [Example 4]?
A: IC50 [1]: 29 nM; Inhibition of IL-8 Secretion Efficacy [1]: 62%; Transrepression (TR)(IL-6-Promoter) Efficacy [2, 8]: 80%; IC50 [2, 9]: 1.5 nM

Q: With `Cc1noc(=O)c2ccc(NC(=O)C(O)(CC3(c4cccc5c4OCC5)CC3)C(F)(F)F)cc12` (racemic) [Example 12] as the compound, how does the IC50 [3] read?
A: 0.85 nM

Q: What about the IC50 ([1]; Homo sapiens) of the same compound?
A: 42 nM

Q: What about the “Inhibition of IL-8 Secretion Efficacy” value [1] of the same compound?
A: 52%

Q: For “(+)-6-[3-(Benzo[1,3]dioxol-4-yl)-cyclobutyl-2-hydroxy-2-trifluoromethyl-propionyl-amino]-4-methyl-2,3-benzoxazin-1-one [Example 6]”, which “Transrepression (TR)(Collagenase Promoter) Efficacy” value [5] is on record?
A: 95%

Q: What about the IC50 [5] of the same compound?
A: 2.6 nM

Q: What about the “Transrepression (TR)(IL-6-Promoter) Efficacy” value [2, 8] of the same compound?
A: 77%

Q: And the IC50 [2, 9]?
A: 1.2 nM

Q: What does the source list for `CCc1noc(=O)c2ccc(NC(=O)C(O)(CC3(c4cccc5c4OCC5)CCC3)C(F)(F)F)cc12` (single isomer, unassigned) [Example 17]?
A: Transrepression (TR)(IL-6-Promoter) Efficacy [2, 8]: 73%; IC50 [2, 9]: 4.6 nM; Transactivating (TA)(MMTV-Promoter) Efficacy ([4]; HeLa cells, luciferase): 50%; TA:TR EC50:IC50 [4]: 8.7; EC50 [4, 10]: 40 nM

Q: Which results are given for `C[C@@H]1C[C@H]2[C@@H]3CCC4=CC(=O)C=C[C@]4(C)[C@@]3(F)[C@@H](O)C[C@]2(C)[C@@]1(O)C(=O)CO` [Dexamethasone, reference compound]?
A: Transrepression (TR)(Collagenase Promoter) Efficacy [5]: 100%; Transrepression (TR)(IL-6-Promoter) Efficacy [2, 8]: 100%; Transactivating (TA)(MMTV-Promoter) Efficacy ([4]; HeLa cells, luciferase): 100%

Q: What does the source list for `Cc1noc(=O)c2ccc(NC(=O)C(O)(CC(C)(C)c3cccc4ccoc34)C(F)(F)F)cc12` (single isomer, unassigned) [Example 23]?
A: Transrepression (TR)(Collagenase Promoter) Efficacy [5]: 78%; IC50 [5]: 4.9 nM; Induction Factor for TAT with 3 mg/kg [6]: 1.1; Induction Factor for TAT with 30 mg/kg [6]: 1.0; Transrepression (TR)(IL-6-Promoter) Efficacy [2, 8]: 78%; IC50 [2, 9]: 1.6 nM; Transactivating (TA)(MMTV-Promoter) Efficacy ([4]; HeLa cells, luciferase): 76%; TA:TR EC50:IC50 [4]: 6.2; EC50 [4, 10]: 10 nM

Q: For `Cc1noc(=O)c2ccc(NC(=O)C(O)(CC(C)(C)c3cccc4c3OCO4)C(F)(F)F)cc12` (racemic) [Example 1, (±)-6-[4-(Benzo[1,3]dioxol-4-yl)-2-hydroxy-4-methyl-2-trifluoromethyl-valeroyl-amino]-4-methyl-2,3-benzoxazin-1-one], which IC50 [3] is on record?
A: 1.5 nM

Q: What about the IC50 ([1]; Homo sapiens) of the same compound?
A: 76 nM

Q: And the “Inhibition of IL-8 Secretion Efficacy” value [1]?
A: 51%

Q: What about the IC50 [2] of the same compound?
A: 2 nM

Q: And the Emax [2]?
A: 84%

Q: Which results are given for `C[C@]12C=CC(=O)C=C1CC[C@@H]1[C@@H]2[C@@H](O)C[C@@]2(C)[C@H]1CC[C@]2(O)C(=O)CO` [Prednisolone, reference compound]?
A: IC50 ([1]; Homo sapiens): 18 nM; Inhibition of IL-8 Secretion Efficacy [1]: 92%; Transrepression (TR)(Collagenase Promoter) Efficacy [5]: 96%; Edema Inhibition with 3 mg/kg [7]: 35%; Edema Inhibition with 30 mg/kg [7]: 84%; Induction Factor for TAT with 3 mg/kg [6]: 2.6; Induction Factor for TAT with 30 mg/kg [6]: 8.0; Emax [2]: 94%

Q: Which “Edema Inhibition with 3 mg/kg” value [7] does the source give for `Cc1noc(=O)c2ccc(NC(=O)C(O)(CC(C)(C)c3cc(Br)ccc3O)C(F)(F)F)cc12` (single isomer, unassigned; (+)) [Example 7, (+)-6-[4-(5-Bromo-2-hydroxyphenyl)-2-hydroxy-4-methyl-2-(trifluoromethyl)valeroylamino]-4-methyl-2,3-benzoxazin-1-one] here?
A: 22%

Q: And the “Edema Inhibition with 30 mg/kg” value [7]?
A: 75%

Q: What about the “Induction Factor for TAT with 3 mg/kg” value [6] of the same compound?
A: 1.2

Q: And the “Induction Factor for TAT with 30 mg/kg” value [6]?
A: 2.4

Q: Which results are given for `CCc1noc(=O)c2ccc(NC(=O)C(O)(CC(C)(C)c3cccc4ccoc34)C(F)(F)F)cc12` (single isomer, unassigned; (+)) [Example 8, (+)-4-Ethyl-6-[4-(7-benzofuranyl)-2-hydroxy-4-methyl-2-trifluoromethylvaleroylamino]-2,3-benzoxazin-1-one]?
A: Edema Inhibition with 3 mg/kg [7]: 33%; Edema Inhibition with 30 mg/kg [7]: 52%; IC50 [2]: 2.8 nM; Emax [2]: 67%; EC50 [4]: 50 nM; Transactivating (TA)(MMTV-Promoter) Efficacy ([4]; HeLa cells, luciferase): 25%; TA:TR EC50:IC50 [4]: 17.8

Q: Which IC50 [3] does the source give for `COc1c(F)cccc1C1(CC(O)(C(=O)Nc2ccc3c(=O)onc(C)c3c2)C(F)(F)F)CCC1` (single isomer, unassigned) [Example 32] here?
A: 3 nM

Q: What about the IC50 [2] of the same compound?
A: 2.2 nM

Q: What about the Emax [2] of the same compound?
A: 76%

Q: Which IC50 [1] does the source give for `Cc1noc(=O)c2ccc(NC(=O)C(O)(CC3(c4cccc5c4OCC5)CCC3)C(F)(F)F)cc12` (racemic) [Example 14] here?
A: 71 nM

Q: And the “Inhibition of IL-8 Secretion Efficacy” value [1]?
A: 61%

Q: What about the “Transrepression (TR)(IL-6-Promoter) Efficacy” value [2, 8] of the same compound?
A: 85%

Q: What about the IC50 [2, 9] of the same compound?
A: 4.2 nM

Q: Which IC50 [2] does the source give for `Cc1noc(=O)c2ccc(NC(=O)C(O)(CC(C)(C)c3cc(F)cc4c3OCO4)C(F)(F)F)cc12` (single isomer, unassigned) [Example 19] here?
A: 3.8 nM

Q: What about the Emax [2] of the same compound?
A: 91%

Q: What does the source list for `Cc1noc(=O)c2ccc(NC(=O)C(O)(CC3(c4cccc5c4OCO5)CC3)C(F)(F)F)cc12` (racemic) [Example 3]?
A: IC50 ([1]; Homo sapiens): 39 nM; Inhibition of IL-8 Secretion Efficacy [1]: 53%; IC50 [2]: 5.9 nM; Emax [2]: 66%
